One experiment has as its system KG-1a cell line. The experiment in a line: KG-1a cell proliferation, CellTiter-Glo assay. The format is cell-based. The following applies: Homo sapiens; KG-1a cells, 72 hours post-treatment; read-out: FCA Prolif Cell TiterGlo KG-1a 72 h (IC50). How it is done:
(§1) The anti-proliferative activity of the test compounds was evaluated on KG-1 and KG-1a cell lines using CellTiter-Glo assay as described in U.S. Pat. No. 9,499,514 at 72 hours post-treatment.
On the technique in general: ATP-based viability assays read luminescence as a measure of living cells.

The test system of another experiment is KG-1 cell line. The experiment in a line: KG-1 cell proliferation, CellTiter-Glo assay. The following applies: Homo sapiens; KG-1 cells, 72 hours post-treatment; read-out: FCA Prolif Cell TiterGlo KG-1 72 h (IC50). Format: cell-based. How it is done: as §1

Among the data in patent US20210069356A1, “ISOTOPOLOGUES OF 2-(4-CHLOROPHENYL)-N-((2-(2,6-DIOXOPIPERIDIN-3-YL)-1-OXOISOINDOLIN-5-YL)METHYL)-2,2-DIFLUOROACETAMIDE” (Celgene Corporation, priority 2018, published 2021) are IC50 values, retold here.

The term IC50 denotes the concentration at which inhibition is half-maximal.

With `[2H]c1cc(Cl)ccc1C(F)(F)C(=O)NCc1ccc2c(c1)CN(C1CCC(=O)NC1=O)C2=O` (stereo not drawn), the IC50 in the experiment with KG-1a cell line came out at 29.9 nM; with KG-1 cell line, 36.9 nM.

In the case of `[2H]c1c([2H])c(C(F)(F)C(=O)NCc2ccc3c(c2)CN(C2CCC(=O)NC2=O)C3=O)c([2H])c([2H])c1Cl` (stereo not drawn), the IC50 with KG-1a cell line amounted to 31.3 nM; in the experiment with KG-1 cell line, 26.2 nM.

`[2H]c1cc(C(F)(F)C(=O)NCc2ccc3c(c2)CN(C2CCC(=O)NC2=O)C3=O)ccc1Cl` (stereo not drawn): the values for the IC50 in the experiment on KG-1a cell line and with KG-1 cell line were 18.1 nM and 15.5 nM, respectively.
